Data from patent publication US12590099B2, “Inhibitors of histone deacetylase useful for the treatment or prevention of HIV infection” (Merck Sharp & Dohme LLC, priority 2018, dated 2026).

Experiments:
Type in all cases: biochemical
Recombinant human HDAC2 = target: T1, Recombinant human HDAC2 (Homo sapiens, UniProt Q92769); test: Human HDAC enzyme inhibitor Fluor-de-Lys assay, HDAC2; conditions: recombinant human HDAC2, Fluor-de-Lys assay
T1 construct: Full length human HDAC2-FLAG was expressed in baculovirus infected Sf9 cells; FLAG (C); made in house; host or cells: Sf9 (baculovirus)
Outline: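 Fluor-de-Lys format at room temperature (23° C.): compounds titrated 10-point, 1:3, preincubated with HDAC before substrate addition. Developer with excess HDAC inhibitor ends the reaction, and trypsin-liberated AMC fluorescence is the read-out.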

[1] = target: T2, Recombinant human HDAC3/SMRT heterodimer (Homo sapiens, UniProt O15379); test: Human HDAC enzyme inhibitor Fluor-de-Lys assay, HDAC3/SMRT; conditions: recombinant human HDAC3/SMRT, Fluor-de-Lys assay
T2 construct: FLAG (C); made in house

HDAC6 = target: T3, HDAC6 (Homo sapiens, UniProt Q9UBN7); test: Human HDAC enzyme inhibitor Fluor-de-Lys assay, HDAC6; conditions: HDAC6, Fluor-de-Lys assay
T3 sequence (Q9UBN7 1-1215): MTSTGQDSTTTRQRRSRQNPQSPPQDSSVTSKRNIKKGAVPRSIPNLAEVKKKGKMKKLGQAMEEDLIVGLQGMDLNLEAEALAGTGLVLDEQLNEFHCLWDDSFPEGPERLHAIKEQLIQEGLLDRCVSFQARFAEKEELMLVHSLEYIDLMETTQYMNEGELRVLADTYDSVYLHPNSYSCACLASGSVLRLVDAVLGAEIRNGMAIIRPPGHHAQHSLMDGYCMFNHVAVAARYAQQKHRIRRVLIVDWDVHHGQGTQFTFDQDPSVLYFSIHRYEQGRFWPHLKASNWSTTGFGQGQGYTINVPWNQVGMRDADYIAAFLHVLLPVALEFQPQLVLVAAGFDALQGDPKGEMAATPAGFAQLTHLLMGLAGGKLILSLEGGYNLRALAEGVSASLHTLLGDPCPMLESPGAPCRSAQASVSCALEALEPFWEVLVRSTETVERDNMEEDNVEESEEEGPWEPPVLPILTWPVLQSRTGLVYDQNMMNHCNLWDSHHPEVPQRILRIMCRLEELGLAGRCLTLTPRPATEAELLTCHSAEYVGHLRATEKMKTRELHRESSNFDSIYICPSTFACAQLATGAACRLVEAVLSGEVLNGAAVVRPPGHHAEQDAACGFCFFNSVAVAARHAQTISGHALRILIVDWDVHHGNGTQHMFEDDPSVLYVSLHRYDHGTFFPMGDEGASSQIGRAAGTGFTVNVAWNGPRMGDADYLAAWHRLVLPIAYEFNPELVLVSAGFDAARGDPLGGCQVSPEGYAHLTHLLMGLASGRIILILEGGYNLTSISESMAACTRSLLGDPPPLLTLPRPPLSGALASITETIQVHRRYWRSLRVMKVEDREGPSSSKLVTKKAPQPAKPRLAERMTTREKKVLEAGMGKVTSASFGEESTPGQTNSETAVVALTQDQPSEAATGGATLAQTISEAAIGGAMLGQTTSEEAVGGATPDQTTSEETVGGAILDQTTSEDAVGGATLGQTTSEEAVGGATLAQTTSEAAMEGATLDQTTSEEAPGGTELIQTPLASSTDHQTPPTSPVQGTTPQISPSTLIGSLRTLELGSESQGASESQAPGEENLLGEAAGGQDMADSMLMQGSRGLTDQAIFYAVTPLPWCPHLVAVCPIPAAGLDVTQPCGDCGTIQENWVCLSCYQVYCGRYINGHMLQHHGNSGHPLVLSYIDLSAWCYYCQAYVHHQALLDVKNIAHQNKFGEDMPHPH

Recombinant human HDAC8 = target: T4, Recombinant human HDAC8 (Homo sapiens, UniProt Q9BY41); test: Human HDAC enzyme inhibitor Fluor-de-Lys assay, HDAC8; conditions: recombinant human HDAC8, Fluor-de-Lys assay
T4 construct: purchased Enzo Life Sciences BML-SE145-0100
T4 sequence (Q9BY41 1-377): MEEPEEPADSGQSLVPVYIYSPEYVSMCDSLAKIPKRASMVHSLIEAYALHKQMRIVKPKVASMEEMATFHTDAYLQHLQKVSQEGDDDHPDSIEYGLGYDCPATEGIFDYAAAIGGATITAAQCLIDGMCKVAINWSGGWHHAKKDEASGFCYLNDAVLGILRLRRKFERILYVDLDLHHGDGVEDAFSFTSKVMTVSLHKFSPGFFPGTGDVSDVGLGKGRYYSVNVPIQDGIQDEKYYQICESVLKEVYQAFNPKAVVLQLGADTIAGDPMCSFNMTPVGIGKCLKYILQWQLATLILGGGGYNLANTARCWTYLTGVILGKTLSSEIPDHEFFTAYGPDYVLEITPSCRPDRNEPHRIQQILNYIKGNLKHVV

T2 sequence (O15379 whole entry): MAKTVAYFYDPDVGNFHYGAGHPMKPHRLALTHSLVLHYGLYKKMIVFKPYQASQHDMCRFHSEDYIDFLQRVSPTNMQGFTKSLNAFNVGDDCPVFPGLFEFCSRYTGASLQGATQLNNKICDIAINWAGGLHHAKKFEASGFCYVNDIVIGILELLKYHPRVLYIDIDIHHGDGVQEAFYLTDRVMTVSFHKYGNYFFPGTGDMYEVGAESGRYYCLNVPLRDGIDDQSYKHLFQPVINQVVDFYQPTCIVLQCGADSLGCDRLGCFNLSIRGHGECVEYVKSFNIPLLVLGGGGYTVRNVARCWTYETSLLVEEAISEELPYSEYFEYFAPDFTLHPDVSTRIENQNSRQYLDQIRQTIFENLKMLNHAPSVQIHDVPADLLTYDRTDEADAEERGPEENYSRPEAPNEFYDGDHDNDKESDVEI
T2 sequence (Q9Y618 1-899 partner limits assumed): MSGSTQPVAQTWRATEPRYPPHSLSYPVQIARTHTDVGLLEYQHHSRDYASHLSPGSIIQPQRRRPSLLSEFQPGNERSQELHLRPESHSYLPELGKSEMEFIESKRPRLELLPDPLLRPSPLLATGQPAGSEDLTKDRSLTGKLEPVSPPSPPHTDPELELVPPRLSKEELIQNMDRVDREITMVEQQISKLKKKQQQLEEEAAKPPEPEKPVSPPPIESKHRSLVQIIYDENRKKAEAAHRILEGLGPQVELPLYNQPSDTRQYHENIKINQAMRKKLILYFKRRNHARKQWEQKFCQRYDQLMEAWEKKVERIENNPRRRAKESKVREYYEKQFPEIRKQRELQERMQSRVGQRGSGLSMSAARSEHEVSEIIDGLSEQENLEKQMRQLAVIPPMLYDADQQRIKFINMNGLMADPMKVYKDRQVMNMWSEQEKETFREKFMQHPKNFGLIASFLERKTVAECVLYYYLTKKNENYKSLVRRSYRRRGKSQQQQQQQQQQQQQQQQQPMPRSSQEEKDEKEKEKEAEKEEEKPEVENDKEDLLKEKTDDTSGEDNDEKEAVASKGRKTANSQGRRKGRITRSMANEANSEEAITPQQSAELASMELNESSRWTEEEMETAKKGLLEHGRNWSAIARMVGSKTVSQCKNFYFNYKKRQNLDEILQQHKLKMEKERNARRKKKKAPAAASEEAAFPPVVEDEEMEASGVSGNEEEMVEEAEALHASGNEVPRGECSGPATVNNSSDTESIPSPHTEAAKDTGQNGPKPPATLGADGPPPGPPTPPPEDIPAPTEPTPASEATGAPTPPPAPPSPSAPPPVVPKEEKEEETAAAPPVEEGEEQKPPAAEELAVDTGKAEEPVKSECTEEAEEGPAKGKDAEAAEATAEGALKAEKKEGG
T1 sequence (Q92769 whole entry): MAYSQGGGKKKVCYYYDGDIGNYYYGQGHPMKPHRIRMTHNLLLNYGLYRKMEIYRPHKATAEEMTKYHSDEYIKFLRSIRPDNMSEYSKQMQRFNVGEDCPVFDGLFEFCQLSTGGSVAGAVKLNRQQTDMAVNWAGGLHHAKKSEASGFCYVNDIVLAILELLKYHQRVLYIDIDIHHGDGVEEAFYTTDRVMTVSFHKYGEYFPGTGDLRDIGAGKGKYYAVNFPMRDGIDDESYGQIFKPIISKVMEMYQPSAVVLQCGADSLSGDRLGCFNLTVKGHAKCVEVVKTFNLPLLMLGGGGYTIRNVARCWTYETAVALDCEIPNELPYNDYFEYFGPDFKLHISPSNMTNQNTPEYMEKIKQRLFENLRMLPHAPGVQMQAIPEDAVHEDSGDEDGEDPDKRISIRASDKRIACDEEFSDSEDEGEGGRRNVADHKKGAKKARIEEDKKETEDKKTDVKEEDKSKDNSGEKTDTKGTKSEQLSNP

Row | SMILES | IC50 (Recombinant human HDAC2) [nM] | IC50 [1] [nM] | IC50 (HDAC6) [nM] | IC50 (Recombinant human HDAC8) [nM]
1 | CCC(=O)CCCCC[C@H](NC(=O)C1CC12CCOCC2)c1ncc(-c2cc3ccc(C)nc3cc2OC)[nH]1 (single isomer, unassigned) [Compound 407] | 20.2 | 3.68 | > 900 | > 900
2 | CCC(=O)CCCCC[C@H](NC(=O)C1CC12CCOCC2)c1ncc(-c2cc3ccc(C)nc3cc2OC)o1 (single isomer, unassigned) [Compound 409] | 100 |  | > 900 | > 900
3 | CCC(=O)CCCCC[C@H](NC(=O)C1CC12CCOCC2)c1ncc(-c2cc3ccc(C)nc3cc2OC)o1 (single isomer, unassigned) [Compound 410] | 143 |  | > 900 | > 900
4 | CCC(=O)CCCCC[C@H](NC(=O)C1CC12CCOCC2)c1ncc(-c2cc3ccc(C)nc3cc2OC)[nH]1 (single isomer, unassigned) [Compound 413] | 155 | 61.9 | > 900 | > 900
5 | CCC(=O)CCCCCC(NC(=O)C1CCC2(CC1)OC(=O)c1ncccc12)c1nnc(-c2cc3ccccc3nc2OC)o1 (stereo not shown) [Compound 365] | 208 | 23.2 | 1940 | 28400
6 | CCC(=O)CCCCC[C@H](NC(=O)[C@H]1CC[C@@]2(CC1)OC(=O)c1cccnc12)c1nnc(-c2cc3ccccc3nc2OC)o1 [Compound 366] | 321 | 37.3 | 2760 | > 45000
7 | CCC(=O)CCCCC[C@H](NC(=O)[C@H]1CC[C@]2(CC1)OC(=O)c1ncccc12)c1nnc(-c2cc3ccccc3nc2OC)o1 [Compound 367] | 67.6 | 10.7 | 2110 | 21400
8 | CCC(=O)CCCCC[C@H](NC(=O)[C@H]1CC[C@]2(CC1)OC(=O)c1cccnc12)c1nnc(-c2cc3ccccc3nc2OC)o1 [Compound 368] | 149 | 20.6 | 2380 | 21700
9 | CCC(=O)CCCCC[C@H](NC(=O)C1=NOC2(CCN(C(C)C)CC2)C1)c1nnc(-c2cc3ccccc3nc2OC)o1 [Compound 369] | 68.2 |  | 2500 | 19900
10 | CCC(=O)CCCCC[C@H](NC(=O)C1=NOC2(CCN(C)CC2)C1)c1nnc(-c2cc3ccccc3nc2OC)o1 [Compound 370] | 41.8 | 8.87 | 1740 | 8650
11 | CCC(=O)CCCCC[C@H](NC(=O)C1=NOC2(CCN(S(C)(=O)=O)CC2)C1)c1nnc(-c2cc3ccccc3nc2OC)o1 [Compound 371] | 287 |  | 4660 | > 45000
12 | CCC(=O)CCCCC[C@H](NC(=O)[C@H]1CC[C@@]2(CC1)OC(=O)c1ccncc12)c1ncc(-c2ccccc2)[nH]1 [Compound 372] | 416 | 14.1 | 10200 | 7730
13 | CCC(=O)CCCCC[C@H](NC(=O)[C@H]1CC[C@@]2(CC1)OC(=O)c1cnccc12)c1ncc(-c2ccccc2)[nH]1 [Compound 373] | 423 | 18.8 | 10100 | 6670
14 | CCC(=O)CCCCC[C@H](NC(=O)[C@H]1CC[C@@]2(CC1)OC(=O)c1ncccc12)c1ncc(-c2ccccc2)[nH]1 [Compound 374] | 423 | 15.8 | 11200 | 8180
15 | CCC(=O)CCCCC[C@H](NC(=O)[C@H]1CC[C@@]2(CC1)OC(=O)c1cccnc12)c1ncc(-c2ccccc2)[nH]1 [Compound 375] | 479 | 19.9 | 10200 | 8880
16 | CCC(=O)CCCCC[C@H](NC(=O)[C@H]1CC[C@]2(CC1)OC(=O)c1ccncc12)c1ncc(-c2ccccc2)[nH]1 [Compound 376] | 239 | 9.02 | 10800 | 4840
17 | CCC(=O)CCCCC[C@H](NC(=O)[C@H]1CC[C@]2(CC1)OC(=O)c1cccnc12)c1ncc(-c2ccccc2)[nH]1 [Compound 378] | 220 | 7.08 | 10800 | 2960
18 | CCC(=O)CCCCC[C@H](NC(=O)C1=NOC2(CCN(C(C)C)CC2)C1)c1ncc(-c2ccccc2)[nH]1 [Compound 379] | 100 | 4.77 | 8590 | 3290
19 | CCC(=O)CCCCC[C@H](NC(=O)C1=NOC2(CCN(C(C)=O)CC2)C1)c1ncc(-c2ccccc2)[nH]1 [Compound 380] | 326 | 8.92 | 16200 | 6330
20 | CCC(=O)CCCCC[C@H](NC(=O)C1=NOC2(CCN(C(=O)OC)CC2)C1)c1ncc(-c2ccccc2)[nH]1 [Compound 381] | 637 | 26.1 | 32300 | 7470
21 | CCC(=O)CCCCC[C@H](NC(=O)C1=NOC2(CCN(C)CC2)C1)c1ncc(-c2ccccc2)[nH]1 [Compound 382] | 146 | 8.02 | 12100 | 6640
22 | CCC(=O)CCCCC[C@H](NC(=O)C1=NOC2(CCN(S(C)(=O)=O)CC2)C1)c1ncc(-c2ccccc2)[nH]1 [Compound 383] | 427 | 16.7 | 16100 | 8960
23 | CCC(=O)CCCCC[C@H](NC(=O)CCN1C(=O)C(CC)=NC12CCOCC2)c1ncc(-c2ccccc2)[nH]1 [Compound 384] | 154 | 12.6 | 10300 | 8930
24 | CCC(=O)CCCCC[C@H](NC(=O)C1=NOC2(CCN(C)CC2)C1)c1ncc(-c2cc3ccc(=O)n(C)c3cc2F)o1 [Compound 386] | 54.7 | 12.4 | > 900 | > 900
25 | CCC(=O)CCCCC[C@H](NC(=O)C1=NOC2(CCN(CC3CC3)CC2)C1)c1ncc(-c2cc3ccc(=O)n(C)c3cc2F)o1 [Compound 387] | 207 | 48.1 | > 900 | > 900
26 | CCC(=O)CCCCC[C@H](NC(=O)[C@H]1CC12CCN(C)CC2)c1ncc(-c2cc3ocnc3cc2F)o1 [Compound 389] | 98.3 | 30.2 | > 900 | > 900
27 | CCC(=O)CCCCC[C@H](NC(=O)C1=NOC2(CCN(C)CC2)C1)c1ncc(-c2ccc(Cl)cc2OC)o1 [Compound 390] | 159 | 39.4 | 309 | > 900
28 | CCC(=O)CCCCC[C@H](NC(=O)C1=NOC2(CCN(C)CC2)C1)c1ncc(-c2ccc(-c3ccccn3)cc2OC)o1 [Compound 391] | 74.5 | 18.6 | > 900 | > 900
29 | CCC(=O)CCCCC[C@H](NC(=O)[C@H]1CC12CCN(CC1CC1)CC2)c1ncc(-c2ccc3nc(C)ccc3c2)[nH]1 [Compound 393] | 0.1 | 0.05 | 325 | > 900
30 | CCC(=O)CCCCC[C@H](NC(=O)[C@H]1CC12CCN(CC1CC1)CC2)c1ncc(-c2cc3ccc(=O)n(C)c3cc2F)o1 [Compound 400] | 39.7 |  | > 900 | > 900
